Assay results as given in patent US20100222421A1, “Usage of Baicalein in the Preparation of a Pharmaceutical Composition for the Treatment of Traumatic Brain Injury” (National Defense Medical Center, priority 2009, published 2010).

Tested on: IL-1β-positive cells
Experiment: Immunohistochemistry, IL-1β-positive cells after CCI injury
Format: in vivo, rat
Settings: single-dose 30 mg kg^-1 i.p.; cortical tissue adjacent to contusion core, 1 day post-injury
Protocol: A previously described CCI injury procedure was utilized (Chen et al., 2003). Male Sprague-Dawley rats, which have body weight of 250-300 g, were anaesthetized with sodium pentobarbital (i.p.; 50 mgkg^−1; Rhone Merieux, Harlow, UK) and placed in a stereotaxic frame. A 5-mm craniotomy was performed over the left parietal cortex, centered on the coronal suture and 3 mm lateral to the sagittal suture. Considerable care was taken to avoid injury to the underlying dura. Injury was made using a pneumatic piston with a rounded metal tip (2.5 mm diameter) that was angled 22.5° C. to the vertical so that the tip was perpendicular with the brain surface at the centre of the craniotomy. A velocity of 4 ms^−1 and a deformation depth 2 mm below the dura were used. The bone flap was immediately replaced and sealed, and the scalp was closed with sutures. Body temperature was monitored throughout the surgery by a rectal probe; temperature was maintained at 37.0±0.5° C. using a heated pad. […] Testing after injury was as follows: (1) real-time quantitative RT-PCR analysis for TNF-α, IL-1β and IL-6 mRNA expression at 6 h post-injury (n=7 for each group); (2) FluoroJade B (FJB) staining, TNF-α, IL-1β and IL-6 immunohistochemistry, as well as ELISA at 24 h post-injury to assess degenerative neurons and to determine cytokine expression (n=7 for each group). […]

Compound: O=c1cc(-c2ccccc2)oc2cc(O)c(O)c(O)c12 [baicalein]
- reduction in IL-1β-positive cells relative to vehicle: 40%
